# How the values were obtained:
# Experiment in all cases: relative viability (nuclei count vs DMSO), 5 days (fraction); higher = more cells survive
# Idelalisib + Foretinib = compound: CC[C@H](Nc1ncnc2[nH]cnc12)c1nc2cccc(F)c2c(=O)n1-c1ccccc1 [Idelalisib] + COc1cc2c(Oc3ccc(NC(=O)C4(C(=O)Nc5ccc(F)cc5)CC4)cc3F)ccnc2cc1OCCCN1CCOCC1 [Foretinib] (partner 0.25 µM)
# Outline: (§1)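 Five library-drug doses in √10 steps were combined with a fixed anchor-drug dose, or a single drug was given alone, by pin tool to lung cancer cell lines in 1536-well plates the day after seeding. Nuclei were stained and counted after 5 days. Relative viability is the nuclei count in treated wells over that in vehicle wells, taken as the median of duplicate plates.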
# Idelalisib + Crizotinib = compound: CC[C@H](Nc1ncnc2[nH]cnc12)c1nc2cccc(F)c2c(=O)n1-c1ccccc1 [Idelalisib] + C[C@@H](Oc1cc(-c2cnn(C3CCNCC3)c2)cnc1N)c1c(Cl)ccc(F)c1Cl [Crizotinib] (partner 1 µM)
# Outline: as §1
# Idelalisib + Vorinostat = compound: CC[C@H](Nc1ncnc2[nH]cnc12)c1nc2cccc(F)c2c(=O)n1-c1ccccc1 [Idelalisib] + O=C(CCCCCCC(=O)Nc1ccccc1)NO [Vorinostat] (partner 1 µM)
# Outline: as §1
# Pemetrexed + Tozasertib = compound: Nc1nc2[nH]cc(CCc3ccc(C(=O)N[C@@H](CCC(=O)O)C(=O)O)cc3)c2c(=O)[nH]1 [Pemetrexed] + Cc1cc(Nc2cc(N3CCN(C)CC3)nc(Sc3ccc(NC(=O)C4CC4)cc3)n2)n[nH]1 [Tozasertib] (partner 0.1 µM)
# Outline: as §1
Cell Line,relative viability (Idelalisib + Foretinib; first compound 0.04 µM),relative viability (Idelalisib + Foretinib; first compound 0.1265 µM),relative viability (Idelalisib + Foretinib; first compound 1.265 µM),relative viability (Idelalisib + Foretinib; first compound 4 µM),relative viability (Idelalisib + Crizotinib; first compound 0.04 µM),relative viability (Idelalisib + Crizotinib; first compound 0.1265 µM),relative viability (Idelalisib + Crizotinib; first compound 0.4 µM),relative viability (Idelalisib + Crizotinib; first compound 1.265 µM),relative viability (Idelalisib + Crizotinib; first compound 4 µM),relative viability (Idelalisib + Vorinostat; first compound 0.04 µM),relative viability (Idelalisib + Vorinostat; first compound 0.1265 µM),relative viability (Idelalisib + Vorinostat; first compound 0.4 µM),relative viability (Idelalisib + Vorinostat; first compound 1.265 µM),relative viability (Idelalisib + Vorinostat; first compound 4 µM),relative viability (Pemetrexed + Tozasertib; first compound 0.002 µM),relative viability (Pemetrexed + Tozasertib; first compound 0.006325 µM),relative viability (Pemetrexed + Tozasertib; first compound 0.02 µM),relative viability (Pemetrexed + Tozasertib; first compound 0.06325 µM),relative viability (Pemetrexed + Tozasertib; first compound 0.2 µM),relative viability (Idelalisib + Foretinib; first compound 0.4 µM)
NCI-H647,1.18,1.35,0.895,0.746,1.43,1.03,0.815,0.859,0.7,0.686,0.435,0.546,0.247,0.141,0.309,0.246,0.297,0.208,0.128,
NCI-H650,1.05,1.05,1.05,1,0.947,0.673,0.652,0.664,0.669,0.495,0.449,0.369,0.419,0.421,0.666,0.691,0.826,0.734,0.74,0.948
NCI-H661,1.12,1.06,1.01,1.02,1.04,,1.08,1.14,0.943,0.81,0.779,0.828,0.876,0.814,0.368,0.325,0.349,0.348,0.351,1.02
NCI-H727,1.1,0.968,0.92,0.691,0.81,0.798,0.76,1,0.797,1.24,1.17,1.12,1.25,1.05,0.6,0.584,0.498,0.738,0.61,0.629
NCI-H838,1.08,0.947,0.931,0.821,0.791,0.906,0.724,0.8,0.695,0.752,0.731,0.68,0.716,0.618,0.229,0.276,0.295,0.265,0.203,0.912
NCI-H1355,0.992,0.946,0.868,0.823,1.21,1.13,0.977,0.988,0.902,0.628,0.662,0.512,0.612,0.548,0.532,0.516,0.554,0.632,0.586,0.907
NCI-H1437,1.24,1.32,1.36,1.42,0.894,0.992,0.851,0.968,1.12,0.902,0.932,0.895,0.964,0.903,,0.402,0.37,0.357,0.228,1.24
NCI-H1650,1.33,1.42,0.864,0.917,0.87,0.892,0.975,0.985,0.952,0.513,0.604,0.58,0.587,0.614,0.388,0.353,0.47,0.304,0.298,0.944
NCI-H1651,0.761,0.799,0.735,0.561,0.919,0.861,0.846,0.864,0.876,0.577,0.416,0.552,0.617,0.593,0.684,0.645,0.703,0.658,0.644,0.702
NCI-H1666,0.825,1.07,1.01,0.947,0.953,1.03,0.809,0.964,0.721,1.01,1.02,0.962,1.05,1.08,0.582,0.554,0.633,0.593,0.598,0.961
NCI-H1734,0.911,0.911,0.957,0.642,0.789,0.639,0.604,0.685,0.527,0.914,0.846,0.627,0.642,0.755,0.249,0.221,0.268,0.284,0.248,0.836
NCI-H1755,0.951,0.915,0.843,0.9,0.812,0.878,0.832,0.745,0.671,0.884,0.748,0.751,0.634,0.723,0.575,0.571,0.619,0.615,0.458,0.889
NCI-H1915,1.15,1.1,1.19,1.09,0.989,0.865,0.848,0.979,0.895,0.567,0.534,0.498,0.503,0.448,0.403,0.439,0.45,0.417,0.425,1.09
NCI-H1944,1,0.877,0.804,0.759,1.38,0.994,1.02,0.976,0.97,0.68,0.526,0.529,0.5,0.48,,0.306,0.269,0.241,0.242,0.752
NCI-H1975,0.934,0.931,0.86,0.867,1.08,0.944,0.817,1,0.81,0.693,0.776,0.681,0.671,0.588,0.756,0.752,0.768,0.704,0.297,0.885
NCI-H1993,0.967,0.843,0.837,0.737,0.873,0.893,0.879,0.834,0.73,0.983,1.09,0.516,0.921,0.487,0.68,0.46,0.523,0.615,0.506,0.649

# — the supplement of paper PMC10307832
